# Like-named read-outs stand apart in the source and are kept apart here.
# Legend:
# [1] = test system: SKOV3 (Ovarian) cell line; assay: Cancer cell cytotoxicity assay (Calcein AM / Cell Titer-Glo), SKOV3; type: cell-based, human
# Protocol: (§1) Compounds of the invention and comparative compounds were assayed in three cancer cell lines to confirm cytotoxic activity and to set a range of concentrations to use in subsequent assays. All cell lines were maintained in RPMI medium 1640 supplemented with 10% (wt/vol) fetal bovine serum and penicillin-streptomycin (100 units/ml and 100 μg/ml). Cells were routinely checked for microbial or mycoplasma contamination and if necessary replaced. Cells were harvested by trypsinization using 0.25% trypsin and 0.1% EDTA and then counted in a ViCell XR coulter counter in duplicate, before and after dilution for assay plating. Between four to nine different types of human cancer cells were plated at a density of 10,000-15,000 cells per well of each 96-well black tissue culture treated microtiter plate, then were grown for 1 hour at 37° C. with 5% CO2/95% air in a humidified incubator to allow cells to attach before compound addition. Compound stocks (100×) were prepared in 96-well V-bottom polypropylene microtiter plates. Five serial (1:2) dilutions were made with anhydrous DMSO at 100× the final concentration used in the assay. The individual wells in compound-containing […] well plates were diluted 1:10 with complete cell culture medium and the 10× (10 μL) stocks were added to 90 μl of cells in each plate to ensure full mixing of stocks with culture media by using a Biomek FX liquid handler with 96-well head. Doxorubicin was used as the control to monitor the behavior of each cell line. Cells were incubated with the compounds for 3 to 4 days before fluorescence and luminescence reading. Test plates were removed from the incubator and washed once in sterile PBS to remove serum containing calcium esterases. Calcein AM (acetoxymethyl ester) reagent was added and the cells were incubated for 30 min at 37° C. Plates were read for emission by using a fluorescein filter (excitation 485 nm, emission 535 nm). An equal volume (30 μL) of Cell Titer-Glo reagent (Promega Corporation, Inc.) was added and incubated for 10 min at room temperature with gentle agitation to lyse the cells. Each plate was re-read for luminescence to confirm the inhibition observed in the fluorescent […] assay as a measure of cell viability. The cancer cell cytotoxicity assays were run in triplicate using ≧5 different drug concentrations, and the data were analyzed to establish statistical significance and a valid IC50 value for inhibition of cell growth, based on ≧2 log differences in drug effect.
# (§2) The cancer cell cytotoxicities (determined substantially according to the method of Example 5) of various compounds of the invention and comparative compounds as determined in four to five different human cancer cell lines are shown in Table 1. The structures of the compounds listed are found in FIGS. 2-4.
# [2] = test system: HT29 (Colorectal) cell line; assay: Cancer cell cytotoxicity assay (Calcein AM / Cell Titer-Glo), HT29; type: cell-based, human
# Protocol: as §1, §2
# [3] = test system: A549 (NSCLC) cell line; assay: Cancer cell cytotoxicity assay (Calcein AM / Cell Titer-Glo), A549; type: cell-based, human
# Protocol: as §1, §2
# [4] = test system: H1299 (NSCLC) cell line; assay: Cancer cell cytotoxicity assay (Calcein AM / Cell Titer-Glo), H1299; type: cell-based, human
# Protocol: as §1, §2
# [5] = test system: NCI-H460 (NSCLC) cell line; assay: Cancer cell cytotoxicity assay (Calcein AM / Cell Titer-Glo), NCI-H460; type: cell-based, human
# Protocol: as §1, §2
# [6] = test system: SKOV3 (Ovarian) cell line; settings: footnote 2: data from Langenhan et al. 2005; cited from earlier work
# [7] = test system: NCI-H460 (NSCLC) cell line; settings: footnote 2: data from Langenhan et al. 2005; cited from earlier work
# [8] = test system: A549 (NSCLC) cell line; settings: footnote 2: data from Langenhan et al. 2005; cited from earlier work
# [9] = test system: human cancer cell lines; assay: Cancer cell cytotoxicity, summary over four to five human cancer cell lines; type: cell-based; settings: read-out: IC50 values (cancer cell cytotoxicity)
# Protocol: as §1, §2
# [10] = NSCLC, footnote 4: determined at same time as CEN08-177 and -178
# [11] = Ovarian, assay set not specified
# [12] = Homo sapiens, SK-OV-3, Ovarian, footnote 6: determined at same time as CEN08-243 and -244
# [13] = Homo sapiens, A549, NSCLC, footnote 6: determined at same time as CEN08-243 and -244
# [14] = Homo sapiens, NCI-H1299, NSCLC, footnote 6: determined at same time as CEN08-243 and -244
# [15] = Homo sapiens, NCI-H460, NSCLC, footnote 6: determined at same time as CEN08-243 and -244
# [16] = Homo sapiens, SK-OV-3, Ovarian, footnote 5: determined at same time as CEN08-193
# [17] = Homo sapiens, HT-29, Colorectal, footnote 5: determined at same time as CEN08-193
# [18] = Homo sapiens, A549, NSCLC, footnote 5: determined at same time as CEN08-193
# [19] = Homo sapiens, NCI-H1299, NSCLC, footnote 5: determined at same time as CEN08-193
# [20] = Homo sapiens, NCI-H460, NSCLC, footnote 5: determined at same time as CEN08-193
# [21] = Colorectal, assay set not specified
# [22] = Ovarian, footnote 3: determined at same time as CEN07-117 and -121
# [23] = Colorectal, footnote 3: determined at same time as CEN07-117 and -121
# [24] = NSCLC, footnote 3: determined at same time as CEN07-117 and -121
# [25] = NSCLC, footnote 7: determined at same time as CEN08-180
compound,measurement,setting,value
CC12CCC(OC3OCC(O)C(O)C3O)CC1CCC1C2CCC2(C)C(C3=CC(=O)OC3)CCC12O (stereo not drawn) [CEN08-177],IC50,"[1]; Ovarian, footnote 4: determined at same time as CEN08-177 and -178",80 nM
same,IC50,"[2]; Colorectal, footnote 4: determined at same time as CEN08-177 and -178",70 nM
same,IC50,[3]; [10],20 nM
same,IC50,[4]; [10],40 nM
same,IC50,[5]; [10],20 nM
CON[C@H]1CC[C@@]2(C)[C@H](CC[C@@H]3[C@@H]2CC[C@]2(C)[C@@H](C4=CC(=O)OC4)CC[C@]32O)C1 [(3β)-3-N-methoxyaminodigitoxigenin],IC50,[6],3000 nM
same,IC50,[7],2400 nM
same,IC50,[8],8300 nM
CON(C1CCC2(C)C(CCC3C2CCC2(C)C(C4=CC(=O)OC4)CCC32O)C1)C1OCC(N)C(O)C1O (stereo not drawn) [CEN08-241],IC50,[1]; [11],74 nM
same,IC50,"[3]; NSCLC, assay set not specified",20 nM
same,IC50,"[4]; NSCLC, assay set not specified",24 nM
same,IC50,"[5]; NSCLC, assay set not specified",27 nM
CC1OC(=O)C=C1C1CCC2(O)C3CCC4CC(OC5OCC(O)C(O)C5O)CCC4(C)C3CCC12C (stereo not drawn) [CEN08-245],IC50,[1]; [11],3220 nM
same,IC50,"[3]; NSCLC, assay set not specified",1290 nM
same,IC50,"[4]; NSCLC, assay set not specified",3700 nM
same,IC50,"[5]; NSCLC, assay set not specified",2100 nM
"CON(C1C=C2CCC3C(CC[C@]4(C)[C@@H](c5ccc(=O)oc5)CC[C@]34O)[C@@]2(C)CC1)[C@H]1OC[C@H](N)[C@H](O)C1O (stereo partly drawn) [CEN08-243, (3S)-3-N-methoxyamino-scillarenin-L-neo-4-amino-4-deoxyxyloside]",IC50,[1]; [12],5 nM
same,IC50,[3]; [13],3 nM
same,IC50,[9],< 80 nM
same,IC50,[4]; [14],7 nM
same,IC50,[5]; [15],5 nM
"C[C@@H]1O[C@@H](O[C@@H]2C=C3CC[C@@H]4[C@H](CC[C@]5(C)[C@@H](c6ccc(=O)oc6)CC[C@]45O)[C@@]3(C)CC2)[C@H](O)[C@H](O)[C@H]1O [proscillaridin, reference compound]",IC50,"[1]; Homo sapiens, SK-OV-3, Ovarian, assay set not specified",12 nM
same,IC50,[1]; [12],15 nM
same,IC50,"[1]; Homo sapiens, SK-OV-3, Ovarian, footnote 7: determined at same time as CEN08-180",11 nM
same,IC50,[1]; [16],45 nM
same,IC50,"[2]; Homo sapiens, HT-29, Colorectal, footnote 7: determined at same time as CEN08-180",10 nM
same,IC50,[2]; [17],7 nM
same,IC50,[3]; [13],12 nM
same,IC50,"[3]; Homo sapiens, A549, NSCLC, footnote 7: determined at same time as CEN08-180",3 nM
same,IC50,[3]; [18],2 nM
same,IC50,[4]; [14],8 nM
same,IC50,"[4]; Homo sapiens, NCI-H1299, NSCLC, footnote 7: determined at same time as CEN08-180",4 nM
same,IC50,[4]; [19],3 nM
same,IC50,[5]; [15],12 nM
same,IC50,"[5]; Homo sapiens, NCI-H460, NSCLC, footnote 7: determined at same time as CEN08-180",11 nM
same,IC50,[5]; [20],5 nM
CC12CCC(OC3OCC(O)C(O)C3O)C=C1CCC1C2CCC2(C)C(c3ccc(=O)oc3)CCC12O (stereo not drawn) [CEN08-190],IC50,[1]; [11],28 nM
same,IC50,[2]; [21],6 nM
same,IC50,"[3]; NSCLC, assay set not specified",4 nM
same,IC50,"[4]; NSCLC, assay set not specified",4 nM
same,IC50,"[5]; NSCLC, assay set not specified",6 nM
CON(C1CCC2(C)C(CCC3C2CC(O)C2(C)C(C4=CC(=O)OC4)CCC32O)C1)C1OCC(O)C(O)C1O (stereo not drawn) [CEN07-121],IC50,[1]; [22],300 nM
same,IC50,[2]; [23],230 nM
same,IC50,[3]; [24],150 nM
same,IC50,[4]; [24],430 nM
same,IC50,[5]; [24],160 nM
"C[C@]12CC[C@H](O[C@H]3OC[C@H](O)[C@@H](O)C3O)C[C@H]1CCC1C2CC[C@]2(C)[C@@H](C3=CC(=O)OC3)CC[C@]12O (stereo partly drawn) [CEN08-178, 3-O-digitoxigenin-L-riboside]",IC50,"[1]; Homo sapiens, SK-OV-3, Ovarian, footnote 4: determined at same time as CEN08-177 and -178",80 nM
same,IC50,"[2]; Homo sapiens, HT-29, Colorectal, footnote 4: determined at same time as CEN08-177 and -178",70 nM
same,IC50,"[3]; Homo sapiens, A549, NSCLC, footnote 4: determined at same time as CEN08-177 and -178",20 nM
same,IC50,[9],< 80 nM
same,IC50,"[4]; Homo sapiens, NCI-H1299, NSCLC, footnote 4: determined at same time as CEN08-177 and -178",50 nM
same,IC50,"[5]; Homo sapiens, NCI-H460, NSCLC, footnote 4: determined at same time as CEN08-177 and -178",20 nM
C[C@]12CCC(OC3OC[C@H](O)[C@@H](O)[C@@H]3O)C[C@H]1CCC1C2CC[C@]2(C)[C@@H](C3=CCOC3=O)CC[C@]12O (stereo partly drawn) [CEN08-193],IC50,[1]; [16],51 nM
same,IC50,[2]; [17],11 nM
same,IC50,[3]; [18],4 nM
same,IC50,[9],< 80 nM
same,IC50,[4]; [19],6 nM
same,IC50,[5]; [20],9 nM
CON(C1C=C2CCC3C(CCC4(C)C(c5ccc(=O)oc5)CCC34O)C2(C)CC1)C1OCC(O)C(O)C1O (stereo not drawn) [CEN08-185],IC50,[1]; [11],15 nM
same,IC50,[2]; [21],13 nM
same,IC50,"[3]; NSCLC, assay set not specified",2 nM
same,IC50,"[4]; NSCLC, assay set not specified",5 nM
same,IC50,"[5]; NSCLC, assay set not specified",9 nM
CON(C1CCC2(C)C(CCC3C2CCC2(C)C(C4=CC(=O)OC4)CCC32O)C1)C1OCC(N)C(O)C1O (stereo not drawn) [CEN08-242],IC50,[1]; [11],228 nM
same,IC50,"[3]; NSCLC, assay set not specified",50 nM
same,IC50,"[4]; NSCLC, assay set not specified",159 nM
same,IC50,"[5]; NSCLC, assay set not specified",74 nM
CC12CCC(OC3OCC(O)C(O)C3O)C=C1CCC1C2CCC2(C)C(c3ccc(=O)oc3)CCC12O (stereo not drawn) [CEN08-192],IC50,[1]; [11],72 nM
same,IC50,[2]; [21],16 nM
same,IC50,"[3]; NSCLC, assay set not specified",8 nM
same,IC50,"[4]; NSCLC, assay set not specified",11 nM
same,IC50,"[5]; NSCLC, assay set not specified",16 nM
(3β)-3-N-methoxyaminoscillarenin [CEN08-180],IC50,"[1]; Ovarian, footnote 7: determined at same time as CEN08-180",34 nM
same,IC50,"[2]; Colorectal, footnote 7: determined at same time as CEN08-180",26 nM
same,IC50,[3]; [25],3 nM
same,IC50,[4]; [25],8 nM
same,IC50,[5]; [25],13 nM
"CON(C1OC[C@H](N)[C@H](O)[C@@H]1O)[C@@H]1C=C2CCC3C(CC[C@]4(C)[C@@H](c5ccc(=O)oc5)CC[C@]34O)[C@@]2(C)CC1 (stereo partly drawn) [CEN08-244, (3S)-3-N-methoxyamino-scillarenin-L-neo-4-amino-4-deoxyriboside]",IC50,[1]; [12],6 nM
same,IC50,[3]; [13],4 nM
same,IC50,[9],< 80 nM
same,IC50,[4]; [14],10 nM
same,IC50,[5]; [15],6 nM
C[C@H]1O[C@@H](O[C@H]2[C@@H](O)C[C@H](O[C@H]3[C@@H](O)C[C@H](O[C@H]4CC[C@@]5(C)[C@H](CC[C@@H]6[C@@H]5CC[C@]5(C)[C@@H](C7=CC(=O)OC7)CC[C@]65O)C4)O[C@@H]3C)O[C@@H]2C)C[C@H](O)[C@@H]1O [Digitoxin],IC50,[6],700 nM
same,IC50,[7],280 nM
same,IC50,[8],280 nM
CON(C1CCC2(C)C(CCC3C2CC(O)C2(C)C(C4=CC(=O)OC4)CCC32O)C1)C1OCC(O)C(O)C1O (stereo not drawn) [CEN07-117],IC50,[1]; [22],550 nM
same,IC50,[2]; [23],440 nM
same,IC50,[3]; [24],340 nM
same,IC50,[4]; [24],500 nM
same,IC50,[5]; [24],350 nM
CON(C1C=C2CCC3C(CCC4(C)C(c5ccc(=O)oc5)CCC34O)C2(C)CC1)C1OC(CO)C(O)C(O)C1N (stereo not drawn) [CEN08-237],IC50,"[3]; NSCLC, assay set not specified",21 nM
same,IC50,"[4]; NSCLC, assay set not specified",20 nM
same,IC50,"[5]; NSCLC, assay set not specified",37 nM
